Some test systems named below: HT-29; OVCAR-3; Hs-578T; M14; UACC-62; UACC-257; BT-549; NCI-H522; HOP-62; SN12C; EKVX; NCI-H226; LOX IMVI; OVCAR-5; CCRF-CEM; RPMI-8226; SK-OV-3; SF-268; HOP-92; SW-620.
Common to all, as to test: growth of human tumour cells (NCI), 48 h

Experimental findings from ChEMBL document CHEMBL1201862, “PubChem BioAssay data set” (2004) are described below.

SMILES strings stand for the structures.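 Five compound concentrations were applied to cells in 96-well plates for 48 hours; endpoints were derived by simple linear interpolation of the resulting dose-response curve. GI50: concentration for 50% inhibition of growth.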 Active and inactive are the calls of the source. Cut-off read from the data, not from the text of the source: active = GI50 up to about 1.1 µM and inactive = higher.

As to `NC1CC(=O)c2c(Cl)sc(Cl)c21` (stereo not drawn), the GI50 was 1.72 µM (inactive) with HT-29; 6.47 µM (inactive) with OVCAR-3; 19.2 µM (inactive) in the assay on Hs-578T; 3.85 µM (inactive) with M14; 2.64 µM (inactive) with UACC-62; 3.16 µM (inactive) in the assay with UACC-257. In addition, the GI50 was 3.76 µM (inactive) in the assay on BT-549; 1.48 µM (inactive) in the assay on NCI-H522; 10.7 µM (inactive) with HOP-62; 2.05 µM (inactive) in the assay with SN12C; 2 µM (inactive) in the assay with EKVX; 14.4 µM (inactive) in the assay with NCI-H226. In addition, the GI50 with LOX IMVI is 1.51 µM (inactive); in the assay on OVCAR-5, 19.3 µM (inactive); in the assay on CCRF-CEM, 0.885 µM (active); in the assay on RPMI-8226 it was 2.37 µM (inactive); with SK-OV-3 it was 14.4 µM (inactive); with SF-268 it was 15.8 µM (inactive). Besides, the GI50 is 1.47 µM (inactive) in the assay with HOP-92 and 1.68 µM (inactive) in the assay on SW-620.

For the compound `Cc1ccc(S(=O)(=O)N2C[C@@H]3CC[C@]4(CO[Si](C)(C)C(C)(C)C)N[C@@H](c5ccccc5)[C@H]2[C@H]34)cc1`, the GI50 was 13.2 µM (inactive) in the assay with HT-29; 32 µM (inactive) with OVCAR-3; 27.4 µM (inactive) with Hs-578T; 61.7 µM (inactive) in the assay on M14; 56.4 µM (inactive) with UACC-62; 23.9 µM (inactive) in the assay with UACC-257. Moreover, the GI50 was 20.4 µM (inactive) in the assay on BT-549; 11.6 µM (inactive) in the assay on NCI-H522; 44.2 µM (inactive) with HOP-62; 19.6 µM (inactive) with SN12C; 34.2 µM (inactive) in the assay with EKVX; 14.4 µM (inactive) in the assay on NCI-H226. Besides, the GI50 with LOX IMVI is 28 µM (inactive); in the assay with OVCAR-5, 77.8 µM (inactive); in the assay with CCRF-CEM, 43.2 µM (inactive); in the assay with RPMI-8226 it was 7.87 µM (inactive); with SK-OV-3 it was 68.1 µM (inactive); in the assay on SF-268, 45.7 µM (inactive). Besides, the results for the GI50 in the assay with HOP-92 and with SW-620 were 3.44 µM (inactive) and 47.3 µM (inactive), respectively.

For `CN1N=C(N)c2cn(C3OC(COP(=O)(O)O)C(O)C3O)c3ncnc1c23` (stereo not drawn), the GI50 in the assay with HT-29 was 17.3 µM (inactive); in the assay with OVCAR-3, 35.2 µM (inactive); with Hs-578T it was 14.1 µM (inactive); in the assay with M14 it was 7.33 µM (inactive); with UACC-62 it was 28.4 µM (inactive); in the assay on UACC-257, 152 µM (inactive). Also, the GI50 with BT-549 was 7.48 µM (inactive); in the assay with NCI-H522, 2050 µM (inactive); in the assay with HOP-62, 23.5 µM (inactive); in the assay on SN12C, 4.24 µM (inactive); with EKVX it was 7.52 µM (inactive); in the assay on NCI-H226, 7.41 µM (inactive). The GI50 in the assay with LOX IMVI was 1.03 µM (active); in the assay on OVCAR-5 it was 9.84 µM (inactive); with CCRF-CEM, 13 µM (inactive); in the assay on RPMI-8226, 282 µM (inactive); with SK-OV-3, 0.822 µM (active); in the assay on SF-268, 55.6 µM (inactive). Also, the values for the GI50 in the assay with HOP-92 and with SW-620 were 0.5 µM (active) and 91.8 µM (inactive), respectively.

For the compound `O=C1c2cccc([N+](=O)[O-])c2C(=O)N1Cc1ccccc1`, the GI50 in the assay on HT-29, with OVCAR-3, in the assay with Hs-578T, in the assay with M14, with UACC-62 and in the assay with UACC-257 was > 100 µM (inactive) each time. The GI50 in the assay on BT-549, with NCI-H522, with HOP-62, in the assay on SN12C, in the assay with EKVX and in the assay with NCI-H226 was > 100 µM (inactive) in each case. Besides, the GI50 with LOX IMVI, with OVCAR-5, in the assay with CCRF-CEM, with RPMI-8226, in the assay with SK-OV-3 and in the assay with SF-268 was > 100 µM (inactive) throughout. In addition, the GI50 in the assay on HOP-92 and with SW-620 was > 100 µM (inactive) throughout.

Take `CC(Nc1cccc(Cl)c1)c1ccncc1` (stereo not drawn): the GI50 was > 100 µM (inactive) with HT-29; 49.4 µM (inactive) with OVCAR-3; > 100 µM (inactive) with Hs-578T; > 100 µM (inactive) in the assay on M14; 74.1 µM (inactive) with UACC-257; > 100 µM (inactive) in the assay on BT-549. The GI50 in the assay on NCI-H522 is 83.6 µM (inactive); with HOP-62, > 100 µM (inactive); in the assay on SN12C, > 100 µM (inactive); in the assay with EKVX, 57.9 µM (inactive); with NCI-H226, 44.3 µM (inactive); in the assay on LOX IMVI it was > 100 µM (inactive). The GI50 in the assay with OVCAR-5 was 51.5 µM (inactive); in the assay on CCRF-CEM, > 100 µM (inactive); in the assay on RPMI-8226, 75.2 µM (inactive); with SK-OV-3, 15.8 µM (inactive); in the assay with SF-268 it was > 100 µM (inactive); in the assay with HOP-92, 73.1 µM (inactive). Besides, in the assay with SW-620, the GI50 is > 100 µM (inactive).

Turning to `Cn1cnc([N+](=O)[O-])c1Sc1nc(N)nc2c1ncn2[C@H]1C[C@H](O)[C@@H](CO)O1`, the GI50 is 3.54 µM (inactive) with HT-29; 3.44 µM (inactive) in the assay with OVCAR-3; 10.3 µM (inactive) with Hs-578T; 1.16 µM (inactive) with M14; 1.51 µM (inactive) in the assay on UACC-62; 8.32 µM (inactive) in the assay on UACC-257. The GI50 with BT-549 is 5.62 µM (inactive); with NCI-H522, 2.57 µM (inactive); in the assay on HOP-62, 0.971 µM (active); in the assay with SN12C it was 5.16 µM (inactive); in the assay with EKVX, 9.18 µM (inactive); with NCI-H226, 7.82 µM (inactive). The GI50 in the assay on LOX IMVI was 0.434 µM (active); with OVCAR-5 it was 3.08 µM (inactive); in the assay with CCRF-CEM, 2.88 µM (inactive); in the assay on RPMI-8226, 1.09 µM (active); in the assay on SK-OV-3, 0.463 µM (active); in the assay with SF-268, 1.77 µM (inactive). Also, the GI50 with HOP-92 was 17.3 µM (inactive); in the assay with SW-620, 6.5 µM (inactive).

With `C[C@H]1CC[C@@H]2[C@@H](C)C[C@H]3[C@@H]4C(C)(C)OC(=O)[C@]4(C)C(=O)[C@@]23C1=O`, the GI50 in the assay with HT-29, in the assay with OVCAR-3, in the assay on Hs-578T, in the assay on M14, with UACC-62 and in the assay on UACC-257 was > 100 µM (inactive) each time. The GI50 with BT-549 is > 100 µM (inactive); in the assay on NCI-H522, 50.7 µM (inactive); in the assay on HOP-62, > 100 µM (inactive); in the assay with SN12C it was > 100 µM (inactive); in the assay on EKVX it was > 100 µM (inactive); with NCI-H226, > 100 µM (inactive). Also, the GI50 in the assay on LOX IMVI, in the assay on OVCAR-5, in the assay on CCRF-CEM, in the assay on RPMI-8226, with SK-OV-3 and in the assay with SF-268 was > 100 µM (inactive) each time. Also, the GI50 is 85.5 µM (inactive) with HOP-92 and > 100 µM (inactive) in the assay with SW-620.

Turning to `COc1cc(/C=N/c2ccc(Oc3ccc(Cl)cc3)c(Cl)c2)cc(OC)c1OC`, the GI50 in the assay on HT-29 is 22.2 µM (inactive); with OVCAR-3, 20 µM (inactive); in the assay on Hs-578T, 15.8 µM (inactive); in the assay on M14, 23.3 µM (inactive); in the assay with UACC-62, 15.3 µM (inactive); in the assay with UACC-257, 20.7 µM (inactive). Also, the GI50 with BT-549 is 15.9 µM (inactive); in the assay on NCI-H522, 12.3 µM (inactive); with HOP-62 it was 23.8 µM (inactive); with SN12C, 20.9 µM (inactive); with EKVX it was 21.1 µM (inactive); in the assay with NCI-H226, 26.6 µM (inactive). In addition, the GI50 in the assay on LOX IMVI is 16.2 µM (inactive); with OVCAR-5, 34.7 µM (inactive); in the assay with CCRF-CEM, 12.4 µM (inactive); with RPMI-8226, 18.9 µM (inactive); with SK-OV-3, > 10 µM (inactive); in the assay on SF-268, 12.4 µM (inactive). Moreover, the GI50 in the assay with HOP-92 is 19.1 µM (inactive); in the assay on SW-620, 34.2 µM (inactive).

In the case of `c1ccc2c(c1)N=c1cc3c(cc1N2)=NC12CCCCC1CC1=C(CCCC1)N32` (stereo not drawn), the GI50 was 3.18 µM (inactive) with HT-29; 1.74 µM (inactive) in the assay with OVCAR-3; 3.82 µM (inactive) with Hs-578T; 2.52 µM (inactive) in the assay on M14; 3.32 µM (inactive) with UACC-62; 2.03 µM (inactive) in the assay on UACC-257. Moreover, the GI50 in the assay with BT-549 was 2.61 µM (inactive); in the assay with NCI-H522 it was 4.19 µM (inactive); with HOP-62 it was 6.53 µM (inactive); in the assay on SN12C, 2.36 µM (inactive); in the assay with EKVX, 4.53 µM (inactive); in the assay with NCI-H226, 2.31 µM (inactive). In addition, the GI50 with LOX IMVI was 3.57 µM (inactive); in the assay with OVCAR-5, 5.36 µM (inactive); in the assay on CCRF-CEM, 2.12 µM (inactive); with RPMI-8226, 2.07 µM (inactive); in the assay with SK-OV-3, > 10 µM (inactive); in the assay on SF-268, 4.55 µM (inactive). Besides, the figures for the GI50 in the assay on HOP-92 and with SW-620 were 4.46 µM (inactive) and 5.47 µM (inactive), respectively.

As to `CN(C)CCCNC(=O)c1c(O)c2ccccc2n(C)c1=O`, the GI50 is 55.6 µM (inactive) in the assay on HT-29; > 100 µM (inactive) in the assay with OVCAR-3; > 100 µM (inactive) with Hs-578T; 64.9 µM (inactive) in the assay on UACC-62; 67.5 µM (inactive) with UACC-257; 70 µM (inactive) in the assay with BT-549. Besides, the GI50 was 61.8 µM (inactive) in the assay on NCI-H522; 36.3 µM (inactive) in the assay with HOP-62; 67.1 µM (inactive) in the assay on SN12C; > 100 µM (inactive) in the assay on EKVX; 67 µM (inactive) in the assay with NCI-H226; 30.6 µM (inactive) in the assay with LOX IMVI. The GI50 in the assay with OVCAR-5 was 63 µM (inactive); in the assay on CCRF-CEM, 43.1 µM (inactive); in the assay on RPMI-8226, 73.8 µM (inactive); in the assay with SK-OV-3 it was > 100 µM (inactive); in the assay on SF-268 it was 49.8 µM (inactive); with HOP-92 it was 14.3 µM (inactive). Further, in the assay with SW-620, the GI50 is 54 µM (inactive).
